In patent US9475766B2, “Substituted aromatic sulfur compounds and methods of their use” (Cephalon, Inc., priority 2011, dated 2016):

Assays:
[1] = test system: A2780 ovarian cancer cell line; experiment: Cell survival and adhesion assay (luciferase), A2780; format: cell-based; conditions: 5 hours, A2780 cells overlayed onto human mesothelial cell monolayers, read-out: relative reduction in Luciferase activity, A2780 10 μM
Method: (§1) SU86 is a pancreatic cancer cell line. HT29 is a colon cancer cell line. BxPC3 is a pancreatic cell line. A2780 is an ovarian cancer cell line.
(§2) BxPc-3 and Su.86.86 pancreatic and HT-29 colon and A2780 ovarian cancer cell lines were purchased from ATCC and cultured in DMEM supplemented with 10% fetal bovine serum, glutamine, penicillin, and streptomycin. All cells were cultured at 37° C. in a humidified incubator in a 5% CO2 atmosphere. The cancer cell lines were transduced with a retrovirus containing pLuc-puro, a constitutive luciferase reporter and selected in […] media. Transient transfection of a full-length human c-FLIP construct in the vector pcDNA3 was performed as previously described. Scaife et al. Cancer Research 2002, 62: 6870-78.
(§3) Pancreatic cancer cell cultures (BxPc-3 and Su.86.86) and colon cancer (HT-29) and ovarian cancer (A2780) cells that were stably transfected with a firefly luciferase construct were transiently suspended with trypsin-PBS. 10^5 cells were overlayed onto confluent monolayers of human mesothelial cells in 96-well plates while simultaneously adding various concentrations of compounds of the invention or DMSO for 5 hours. The non-adherent cells were carefully washed away from the wells twice with 100 μl/well of blocking buffer (1% BSA in PBS) and twice again with ice-cold PBS. Adherent and surviving cells were detected by luciferase activity in a luminometer as follows. The cells were lysed in 0.1% TritonX-100, 25 mM Gly-Gly (7.8), MgSO4, 4 mM EGTA, 1 mM DTT. The total protein concentration was normalized with lysis buffer. 50 μl of cell lysate was added per well of a 96-well microtiter plate. 50 μl of luciferin substrate (Promega) was added per well and then the light output determined in a luminometer.

[2] = test system: BxPC3 pancreatic cell line; experiment: Cell survival and adhesion assay (luciferase), BxPC3; format: cell-based; conditions: BXPC-3, 5 hours, BxPC3 cells overlayed onto human mesothelial cell monolayers, read-out: relative reduction in Luciferase activity, BxPC3 10 μM
Method: as §1, §2, §3

SMILES | inhibition at 10 µM [1] [%] | inhibition at 10 µM [2] [%]
N#C/C=C/S(=O)(=O)c1ccc(C2(C(=O)Nc3ccccc3)CCC2)cc1 [Example 75, 1-[4-((E)-2-Cyano-ethenesulfonyl)-phenyl]-cyclobutanecarboxylic acid phenylamide] | 50 to 85 | > 85
CC(C)(C(=O)NC1CCCCC1)c1cccc(S(=O)(=O)/C=C/C#N)c1 [Example 35, 2-[3-((E)-2-Cyano-ethenesulfonyl)-phenyl]-N-cyclohexyl-isobutyramide] |  | 50 to 85
N#C/C=C/S(=O)(=O)c1ccc(C2(C(=O)NC3CCCCC3)CC2)cc1 [Example 68, 1-[4-((E)-2-Cyano-ethenesulfonyl)-phenyl]-cyclopropanecarboxylic acid cyclohexylamide] | > 85 | 50 to 85
N#C/C=C/S(=O)(=O)c1ccc(C2(C(=O)O)CCC2)cc1 [Example 74, 1-[4-((E)-2-Cyano-ethenesulfonyl)-phenyl]-cyclobutanecarboxylic acid] | < 10 | < 10
N#C/C=C/S(=O)(=O)c1ccc(C2(C(=O)NCc3ccc(Cl)cc3)CCOCC2)cc1 [Example 85, 4-[4-((E)-2-Cyano-ethenesulfonyl)-phenyl]-tetrahydro-pyran-4-carboxylic acid 4-chloro-benzylamide] | 50 to 85 | 50 to 85
N#C/C=C/S(=O)(=O)c1ccc(C2(C(=O)Nc3ccccc3)CCOCC2)cc1 [Example 84, 4-[4-((E)-2-Cyano-ethenesulfonyl)-phenyl]-tetrahydro-pyran-4-carboxylic acid phenylamide] | 10 to 50 | 10 to 50
CC(C)(C)OC(=O)NCCOCCOCCNC(=O)C(C)(C)c1ccc(S(=O)(=O)/C=C/C#N)cc1 [Example 34, {2-[2-(2-{2-[4-((E)-2-Cyano-ethenesulfonyl)-phenyl]-2-methyl-propionylamino}-ethoxy)-ethoxy]-ethyl}-carbamic acid tert-butyl ester] |  | < 10
N#C/C=C/S(=O)(=O)c1ccc(C2(C(=O)NCc3ccc(F)cc3)CC2)cc1 [Example 67, 1-[4-((E)-2-Cyano-ethenesulfonyl)-phenyl]-cyclopropanecarboxylic acid 4-fluoro-benzylamide] | > 85 | 50 to 85
Cc1ccc2oc(COc3ccc(S(=O)(=O)/C=C/C#N)cc3C(C)(C)C)nc2c1 [Example 81, (E)-3-[3-tert-Butyl-4-(5-methyl-benzoxazol-2-ylmethoxy)-benzenesulfonyl]-acrylonitrile] | > 85 | 50 to 85
CC(C)(C(=O)NCc1ccc(F)cc1)c1cccc(S(=O)(=O)/C=C/C#N)c1 [Example 37, 2-[3-((E)-2-Cyano-ethenesulfonyl)-phenyl]-N-(4-fluoro-benzyl)-isobutyramide] |  | 50 to 85
N#C/C=C/S(=O)(=O)c1ccc(C2(C(=O)NC3CCCCC3)CCOCC2)cc1 [Example 83, 4-[4-((E)-2-Cyano-ethenesulfonyl)-phenyl]-tetrahydro-pyran-4-carboxylic acid cyclohexylamide] | < 10 | 10 to 50
CC(C)(C(=O)NCc1cccc(F)c1)c1ccc(S(=O)(=O)/C=C/C#N)cc1 [Example 39, 2-[4-((E)-2-Cyano-ethenesulfonyl)-phenyl]-N-(3-fluoro-benzyl)-isobutyramide] |  | 10 to 50
CC(C)(C(=O)NCc1ccc(N)cc1)c1ccc(S(=O)(=O)/C=C/C#N)cc1 [Example 38, N-(4-Amino-benzyl)-2-[4-((E)-2-cyano-ethenesulfonyl)-phenyl]-isobutyramide] |  | 10 to 50
COc1cccc(NC(=O)C(C)(C)c2cccc(S(=O)(=O)/C=C/C#N)c2)c1 [Example 36, 2-[3-((E)-2-Cyano-ethenesulfonyl)-phenyl]-N-(3-methoxy-phenyl)-isobutyramide] |  | 50 to 85
